# Measured values reported in patent US20040019043A1, “Thiomolybdate analogues and uses thereof” (priority 2002, published 2004).
# Marks after values point to notes of the source that are not given here.
# Legend:
# [1] = Chemical Stability Data for Analogs
# [2] = test system: Lewis Lung carcinoma (3LL) cells; assay: In Vivo 3LL Lewis Lung Carcinoma: Primary Tumor Growth; conditions: 3LL s.c. in female C57/BL mice; TM and CHTM 50 mg/kg po by gavage from day after inoculation; cyclophosphamide 170 mg/kg s.c. every 6 days from day 3
# Description: The tumor model used was 3LL JF in C57BL/6 mice. […] The test compound is administered daily for 11-25 days.
# (§1) Animals are followed by weighing, palpation and measurement of tumor size. […] A positive control compound, for example cyclophosphamide at 170 mg/kg/injection is given every 6 days. Results computed include mean animal weight, tumor size, tumor weight and survival time. For confirmed therapeutic activity, the test composition should be tested in two multi-dose assays. Female C57/BL mice were inoculated with 1×10^6 Lewis Lung carcinoma (3LL) cells subcutaneously in the middle of the back. […] Cyclophosphamide (170 mg/kg given every 6 days subcutaneously beginning on day 3 after tumor cell inoculation) was used as a control. Tumor volumes and animal weights were measured 2×/week and the animals euthanized when the volume of the tumors in the control group reached an average of 2000 mm^3. The ratio (T/C) of the tumor volumes in the treated group (T) to the control group (C) were determined. Terminal cardiac bleeds were obtained and analyzed for red blood cell concentration (hematocrit, HCT).
# [3] = Animal weight and hematocrit in 3LL tumor-bearing mice
# Description: as §1
# [4] = After 10 days, Oven to room conditions
molecule,measurement,setting,value
"C[N+]1(C)CCCC1.C[N+]1(C)CCCC1.[S]=[Mo](=[S])([S-])[S-] [1,1-dimethylpyrrolidinium, Tetrathiomolybdate, bis(1,1-dimethylpyrrolidinium)]",% remaining,[1]; [4],70%
"Cc1cc[n+](C)cc1 [1,4-dimethylpyridinium, Tetrathiomolybdate, bis(1,4-dimethylpyridinium)]",% remaining,[1]; [4],32%
"CCn1cc[n+](C)c1.CCn1cc[n+](C)c1.[S]=[Mo](=[S])([S-])[S-] [1-ethyl-3-methyl-1H-imidazolium, Tetrathiomolybdate, bis(1-ethyl-3-methyl-1H-imidazolium)]",% remaining,[1]; [4],75%
"[NH4+].[NH4+].[SH-].[SH-].[S]=[Mo]=[S] [Ammonium, ammonium tetrathiomolybdate]",T/C (ratio of tumor volumes in treated group to control group),[2],0.59
same,"HCT (hematocrit, red blood cell concentration)","[3]; mouse, in vivo",35%
same,MOUSE WEIGHT % of initial,"[3]; mouse, in vivo",93%*
same,% remaining,"[1]; *9 days, different study, Oven to room conditions",*48%
"C[N+](C)(C)CCO [Choline, Tetrathiomolybdate, bis(choline)]","HCT (hematocrit, red blood cell concentration)","[3]; mouse, in vivo",35%
same,MOUSE WEIGHT % of initial,"[3]; mouse, in vivo",103%
same,% remaining,[1]; [4],62%
O=P1(N(CCCl)CCCl)NCCCO1 (stereo not shown) [Cyclophosphamide],T/C (ratio of tumor volumes in treated group to control group),[2],0.74
same,MOUSE WEIGHT % of initial,"[3]; 3LL tumor-bearing female C57/BL mice, same dosing as T/C",105%
same,"HCT (hematocrit, red blood cell concentration)","[3]; terminal cardiac bleeds, normal is 45%",40%
"CC[N+](C)(CC)CC.CC[N+](C)(CC)CC.[S]=[Mo](=[S])([S-])[S-] [Methyltriethylammonium, Tetrathiomolybdate, bis(triethylmethyl ammonium)]",% remaining,[1]; [4],63%
"CC[N+](CC)(CC)c1ccccc1.CC[N+](CC)(CC)c1ccccc1.[S]=[Mo](=[S])([S-])[S-] [Triethylphenylammonium, Tetrathiomolybdate, bis(triethylphenyl ammonium)]",% remaining,[1]; [4],76%
"C[N+](C)(C)Cc1ccccc1.C[N+](C)(C)Cc1ccccc1.[S]=[Mo](=[S])([S-])[S-] [Trimethylbenzylammonium, Tetrathiomolybdate, bis(benzyltrimethylammonium)]",% remaining,[1]; [4],94%
"C[N+](C)(C)c1ccccc1.C[N+](C)(C)c1ccccc1.[S]=[Mo](=[S])([S-])[S-] [Trimethylphenylammonium, Tetrathiomolybdate, bis(phenyltrimethylammonium)]",% remaining,"[1]; 7 days, 74-77% RH, RT",98%
same,% remaining,[1]; [4],85%
"C[N+](C)(Cc1ccccc1)c1ccccc1.C[N+](C)(Cc1ccccc1)c1ccccc1.[S]=[Mo](=[S])([S-])[S-] [bis(benzylphenyldimethylammonium), Tetrathiomolybdate, bis(benzylphenyldimethylammonium)]",% remaining,"[1]; 7 days, 74-77% RH, RT",45%
"C[N+](C)(C)CC1CC1.C[N+](C)(C)CC1CC1.[S]=[Mo](=[S])([S-])[S-] [bis(cyclopropylmethyltrimethylammonium), Tetrathiomolybdate, bis(cyclopropylmethyltrimethyl ammonium)]",% remaining,"[1]; 7 days, 74-77% RH, RT",86%
"C=C[N+](C)(C)C.C=C[N+](C)(C)C.[S]=[Mo](=[S])([S-])[S-] [bis(vinyltrimenthyammonium), Tetrathiomolybdate, bis(vinyltrimethyl ammonium)]",% remaining,"[1]; 7 days, 74-77% RH, RT",72%
"C[N+](C)(C)CCCC[N+](C)(C)C [butane-1,4-bis(trimethylammonium)]",% remaining,[1]; [4],40%
"C[N+](C)(C)CCCCCC[N+](C)(C)C.[S]=[Mo](=[S])([S-])[S-] [hexane-1,6-bis(trimethylammonium), Tetrathiomolybdate, hexane-1,6-bis(trimethylammonium)]",% remaining,"[1]; 7 days, 74-77% RH, RT",94%
"C[N+](C)(C)CCCCC[N+](C)(C)C [pentane-1,5-bis(trimethylammonium), Tetrathiomolybdate, pentane-1,5-bis(trimethylammonium)]",% remaining,[1]; [4],86%
Ethylenebis(trimethylammonium),% remaining,[1]; [4],40%
